Source: ChEMBL document CHEMBL1143380, “N-[6-amino-2-(heteroaryl)pyrimidin-4-yl]acetamides as A2A receptor antagonists with improved drug like properties and in vivo efficacy” (J Med Chem, 2009)
Values after ≈ are worked out from the molar mass of the structure shown.

How the values were obtained:
Adenosine receptor A2a [1] = molecular target: T1, Adenosine receptor A2a (Homo sapiens, UniProt P29274); assay: Displacement of [3H]ZM241385 from human adenosine A2A receptor expressed in HEK293 cells; type: cell-based
Adenosine receptor A1 = molecular target: T2, Adenosine receptor A1 (Homo sapiens, UniProt P30542); assay: Displacement of [3H]DPCPX from human adenosine A1 receptor expressed in HEK293 cells; type: cell-based
T2 sequence (P30542 whole entry): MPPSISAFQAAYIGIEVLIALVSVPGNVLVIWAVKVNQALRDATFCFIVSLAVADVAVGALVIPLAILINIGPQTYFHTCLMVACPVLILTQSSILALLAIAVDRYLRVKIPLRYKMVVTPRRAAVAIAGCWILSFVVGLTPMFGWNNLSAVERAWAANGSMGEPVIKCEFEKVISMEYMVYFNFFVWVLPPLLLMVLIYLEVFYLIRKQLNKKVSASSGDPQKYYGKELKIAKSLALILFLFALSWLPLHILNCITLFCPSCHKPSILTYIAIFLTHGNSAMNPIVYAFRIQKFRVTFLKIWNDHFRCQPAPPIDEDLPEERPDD

Homo sapiens = species on record: Homo sapiens; assay: Selectivity ratio of Ki for human adenosine A1 receptor to Ki for human adenosine A2A receptor
Adenosine receptor A2a [2] = molecular target: T1, Adenosine receptor A2a; assay: Antagonist activity at human adenosine A2A receptor assessed as inhibition of CGS-21680-stimulated cAMP production; type: functional
[3] = Solubility at pH >=2; type: physicochemical
[4] = Solubility in phosphate buffer at pH 7.2; type: physicochemical
[5] = Solubility in phosphate buffered saline; type: physicochemical

T1 sequence (P29274 whole entry): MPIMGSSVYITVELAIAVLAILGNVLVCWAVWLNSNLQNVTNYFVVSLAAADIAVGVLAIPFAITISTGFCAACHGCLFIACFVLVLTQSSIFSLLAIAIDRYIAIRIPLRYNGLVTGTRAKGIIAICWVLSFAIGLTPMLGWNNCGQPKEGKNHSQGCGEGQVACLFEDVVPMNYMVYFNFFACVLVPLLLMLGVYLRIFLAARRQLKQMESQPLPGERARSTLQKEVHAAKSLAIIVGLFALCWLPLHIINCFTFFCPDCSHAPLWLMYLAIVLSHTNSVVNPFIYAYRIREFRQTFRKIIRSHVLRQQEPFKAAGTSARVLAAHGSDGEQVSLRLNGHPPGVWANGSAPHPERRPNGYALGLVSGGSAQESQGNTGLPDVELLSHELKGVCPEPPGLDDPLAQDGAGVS

SMILES | Ki (Adenosine receptor A2a [1]) [nM] | Ki (Adenosine receptor A1) [nM] | Ratio Ki (Homo sapiens) | IC50 (Adenosine receptor A2a [2]) [nM] | solubility [3] [µg/mL] | solubility [4] [µg/mL] | solubility [5] [µg/mL]
CCOCC1CCCN1c1cc(NC(C)=O)nc(-n2nc(C)cc2C)n1 (centres undefined) | 455 | 4190 | 9 | – | – | – | –
COC[C@H]1CCCN1c1cc(NC(C)=O)nc(-c2ccc(C)o2)n1 | 2.7 | 10.5 | 4 | – | – | – | –
COCC1CCCN1c1cc(NC(C)=O)nc(-n2nc(C)cc2C)n1 (centres undefined) | 9 | 320 | 35 | – | – | – | –
CC(=O)Nc1cc(N2CCCC2C)nc(-n2nc(C)cc2C)n1 (centres undefined) | 28 | 1040 | 37 | – | – | – | –
CC(=O)Nc1cc(N2CCCCC2)nc(-n2nc(C)cc2C)n1 | 78 | 3360 | 43 | – | – | – | –
COC[C@@H]1CCC(C)N1c1cc(NC(C)=O)nc(-n2nc(C)cc2C)n1 (some centres undefined) | 47 | 1640 | 35 | – | – | – | –
CCN(CC)c1cc(NC(C)=O)nc(-n2nc(C)cc2C)n1 | 92 | 4470 | 49 | – | – | – | –
COC(=O)[C@@H]1CCCN1c1cc(NC(C)=O)nc(-n2nc(C)cc2C)n1 | > 10000 | – | – | – | – | – | –
CC(=O)Nc1cc(N2CCCC2CO)nc(-n2nc(C)cc2C)n1 (single isomer, unassigned) | 25.8 | 1530 | 59 | – | – | – | –
CC(=O)Nc1cc(N2CCCC2)nc(-n2nc(C)cc2C)n1 | 110 | 4950 | 45 | – | – | – | –
COC[C@H]1C[C@H](OC)CN1c1cc(NC(C)=O)nc(-n2nc(C)cc2C)n1 | 7.5 | 352 | 47 | – | – | – | –
COC[C@H]1CCCN1c1cc(NC(=O)CC(C)C)nc(-n2nc(C)cc2C)n1 | 50 | 92 | 2 | – | – | – | –
CC(=O)Nc1cc(N2CCC[C@H]2COc2ccccn2)nc(-n2nc(C)cc2C)n1 | 439 | 12100 | 28 | – | – | – | –
CCC(=O)Nc1cc(N2CCC[C@@H]2COC)nc(-n2nc(C)cc2C)n1 | 5.9 | 64 | 11 | – | – | – | –
COC(=O)[C@H]1CCCN1c1cc(NC(C)=O)nc(-n2nc(C)cc2C)n1 | 205 | 2930 | 14 | – | – | – | –
COC[C@H]1CCCN1c1cc(NC(=O)OC)nc(-n2nc(C)cc2C)n1 | 19 | 960 | 50 | – | – | – | –
COC[C@@H]1CCCN1c1cc(NC(C)=O)nc(-c2ccc(C)o2)n1 | 119 | 215 | 2 | – | – | – | –
COc1cncc(-c2cc(NC(C)=O)nc(-n3nc(C)cc3C)n2)c1 | – | – | 82 | 85 | 10 (≈ 29.6 µM) | – | –
COC[C@@H]1CCCN1c1cc(NC(C)=O)nc(-c2ccccn2)n1 | 50 | 125 | 2.5 | – | – | – | –

SMILES | Ki (Adenosine receptor A2a [1]) [nM] | Ki (Adenosine receptor A1) [nM] | Ratio Ki (Homo sapiens) | IC50 (Adenosine receptor A2a [2]) [nM] | solubility [3] [µg/mL] | solubility [4] [µg/mL] | solubility [5] [µg/mL]
COC[C@H]1CCCN1c1cc(NC(C)=O)nc(-c2cccs2)n1 | 47 | 203 | 4.3 | – | – | – | –
COC[C@H]1CCCN1c1cc(NC(=O)NC(C)C)nc(-n2nc(C)cc2C)n1 | 43 | 1280 | 29 | – | – | – | –
CC(=O)Nc1cc(N2CCc3ccccc3C2)nc(-n2nc(C)cc2C)n1 | 4.2 | 323 | 77 | – | – | 10 (≈ 27.6 µM) | –
CC(=O)Nc1cc(N2CCCC2=O)nc(-n2nc(C)cc2C)n1 | 12 | 913 | 76 | 1000 | – | – | –
COC[C@@H]1CCCN1c1cc(NC(C)=O)nc(-c2nccs2)n1 | 15 | 354 | 23 | – | – | – | –
CC(=O)Nc1cc(N2CCOCC2)nc(-n2nc(C)cc2C)n1 | 313 | 8120 | 26 | – | – | – | –
COC[C@H]1CCCN1c1cc(NC(C)=O)nc(-n2nc(C)cc2C)n1.Cl | – | – | – | – | – | – | > 6700
COC[C@@H]1CCCN1c1cc(NC(C)=O)nc(-n2nc(C)cc2C)n1 | 324 | 4470 | 14 | – | – | – | –
CC(=O)Nc1cc(N2CCC[C@@H]2COc2ccccn2)nc(-n2nc(C)cc2C)n1 | 40 | 64 | 1.5 | – | – | – | –
COC[C@H]1CCCN1c1cc(NC(C)=O)nc(-n2nc(C)cc2C)n1 | – | – | 34 | – | – | – | –
COC[C@H]1CCCN1c1cc(N)nc(-n2nc(C)cc2C)n1 | 261 | 2470 | 9.5 | – | – | – | –
COCCC1CCCCN1c1cc(NC(C)=O)nc(-n2nc(C)cc2C)n1 (single isomer, unassigned) | 275 | 4690 | 17 | – | – | – | –
COC[C@H]1CCCN1c1cc(NC(C)=O)nc(-c2ccccn2)n1 | 46 | 69 | 1.5 | – | – | – | –
CC(=O)Nc1cc(-c2ccccc2O)nc(-n2nc(C)cc2C)n1 | 1.9 | – | – | – | – | – | –
CC(=O)Nc1cc(N2CCN(C)CC2)nc(-n2nc(C)cc2C)n1 | 1870 | > 10000 | – | – | – | – | –
COC[C@H]1C[C@@H](OC)CN1c1cc(NC(C)=O)nc(-n2nc(C)cc2C)n1 | 23 | 620 | 27 | – | – | – | –
COC[C@@H]1CCCN1c1cc(NC(C)=O)nc(-c2cccs2)n1 | 27 | 325 | 12 | – | – | – | –
COC[C@H]1CCCN1c1cc(NC(C)=O)nc(-c2nccs2)n1 | 20 | 150 | 7.5 | – | – | – | –
